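Cells were grown in 96-well plates and exposed to each compound for 48 hours at five concentrations; endpoints were interpolated linearly between bracketing concentrations, or set to the highest concentration if not reached. GI50 is the concentration that inhibits growth by half.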 Active and inactive are the calls of the source. Rule as the data show it: active = GI50 up to about 1.1 µM and inactive = higher.
Legend:
Test in all cases: NCI tumour cell line growth inhibition, 48 h
OVCAR-8 = test system: OVCAR-8
NCI-H522 = test system: NCI-H522
SNB-19 = test system: SNB-19
CCRF-CEM = test system: CCRF-CEM
NCI-H226 = test system: NCI-H226
SK-OV-3 = test system: SK-OV-3
CAKI-1 = test system: CAKI-1
NCI-H460 = test system: NCI-H460
HCT-116 = test system: HCT-116
NCI-H23 = test system: NCI-H23
U-251 = test system: U-251
786-0 = test system: 786-0
SR = test system: SR
SN12C = test system: SN12C
ACHN = test system: ACHN
Malme-3M = test system: Malme-3M
LOX IMVI = test system: LOX IMVI
SK-MEL-5 = test system: SK-MEL-5
HCT-15 = test system: HCT-15
SF-539 = test system: SF-539

| Compound | GI50 (OVCAR-8) | GI50 (NCI-H522) | GI50 (SNB-19) | GI50 (CCRF-CEM) | GI50 (NCI-H226) | GI50 (SK-OV-3) | GI50 (CAKI-1) | GI50 (NCI-H460) | GI50 (HCT-116) | GI50 (NCI-H23) | GI50 (U-251) | GI50 (786-0) | GI50 (SR) | GI50 (SN12C) | GI50 (ACHN) | GI50 (Malme-3M) | GI50 (LOX IMVI) | GI50 (SK-MEL-5) | GI50 (HCT-15) [µM] | GI50 (SF-539) |
| --- | --- | --- | --- | --- | --- | --- | --- | --- | --- | --- | --- | --- | --- | --- | --- | --- | --- | --- | --- | --- |
| CC(C)(C)C1=Cc2cc3cc(C(C)(C)C)[nH]c(=O)c3cc2S(=O)(=O)N1 | 39.8 µM (inactive) | 15.3 µM (inactive) | 36.4 µM (inactive) | 26.6 µM (inactive) | 19.9 µM (inactive) | 31.2 µM (inactive) | 12.2 µM (inactive) | 37 µM (inactive) | 20.5 µM (inactive) | 29.9 µM (inactive) | 18 µM (inactive) | 26.2 µM (inactive) | 23.7 µM (inactive) | 42.7 µM (inactive) | 30.3 µM (inactive) | 22.4 µM (inactive) |  |  |  |  |
| CCO/C=N/NC(=O)CSc1nc2ccc(I)cc2c(=O)n1Cc1ccccc1 | 87.5 µM (inactive) | 3.04 µM (inactive) | 44.2 µM (inactive) | 23 µM (inactive) | 64.4 µM (inactive) | > 100 µM (inactive) | > 100 µM (inactive) | 28.8 µM (inactive) | 28.8 µM (inactive) | 36.9 µM (inactive) | 35.9 µM (inactive) | 56 µM (inactive) | 33.7 µM (inactive) | 84.5 µM (inactive) | > 100 µM (inactive) |  | 63.8 µM (inactive) | > 100 µM (inactive) | > 100 | 53.8 µM (inactive) |
| NC1(C(=O)O)CCCC1C(=O)O (configuration not stated) | > 100 µM (inactive) | > 100 µM (inactive) | > 100 µM (inactive) | > 100 µM (inactive) |  | > 100 µM (inactive) | > 100 µM (inactive) | > 100 µM (inactive) | > 100 µM (inactive) | > 100 µM (inactive) | > 100 µM (inactive) | > 100 µM (inactive) | > 100 µM (inactive) | > 100 µM (inactive) | > 100 µM (inactive) | > 100 µM (inactive) | > 100 µM (inactive) | > 100 µM (inactive) | > 100 | > 100 µM (inactive) |
| O=[N+]([O-])c1cccc(C2SCc3nc4ccccc4n32)c1 (configuration not stated) | > 100 µM (inactive) |  | > 100 µM (inactive) | > 100 µM (inactive) | 39.6 µM (inactive) | > 100 µM (inactive) | 21.8 µM (inactive) | > 100 µM (inactive) |  | 64.4 µM (inactive) | > 100 µM (inactive) | > 100 µM (inactive) | 82.4 µM (inactive) | 97.3 µM (inactive) | 62.7 µM (inactive) | 54.1 µM (inactive) | 88.3 µM (inactive) | 19.6 µM (inactive) |  | > 100 µM (inactive) |
| S=C1/C(=N/c2ccccc2)N(c2ccccc2)/C(=N\c2cccc[n+]2Cc2ccccc2)N1c1ccccc1 | 17.9 µM (inactive) | 13.3 µM (inactive) | 15.4 µM (inactive) |  | 19.3 µM (inactive) | 21.7 µM (inactive) | 18.9 µM (inactive) | 18.7 µM (inactive) | 11.1 µM (inactive) | 19 µM (inactive) | > 10 µM (inactive) | 15.8 µM (inactive) | 15.3 µM (inactive) | 21 µM (inactive) | 17 µM (inactive) | 14.4 µM (inactive) |  | 12.8 µM (inactive) | 21.4 | 16.3 µM (inactive) |
| Oc1cc(-c2cccc(C(F)(F)F)c2)nc2cc3c(cc12)OCO3 | 2.34 µM (inactive) | 0.536 µM (active) | 2.77 µM (inactive) | 0.277 µM (active) |  | 2.26 µM (inactive) | 10.9 µM (inactive) | 1.39 µM (inactive) |  | 1.77 µM (inactive) | 2.55 µM (inactive) | 2.05 µM (inactive) | 0.55 µM (active) | 8.75 µM (inactive) | 25.7 µM (inactive) | 0.518 µM (active) |  |  | 1.38 | 1.04 µM (active) |
| NC(=O)NC1C(C(N)=O)N(Cc2ccccc2)C(=O)N1Cc1ccccc1 (configuration not stated) | > 100 µM (inactive) | > 100 µM (inactive) | > 100 µM (inactive) | > 100 µM (inactive) |  | > 100 µM (inactive) | > 100 µM (inactive) | > 100 µM (inactive) | > 100 µM (inactive) | > 100 µM (inactive) | > 100 µM (inactive) | > 100 µM (inactive) | > 100 µM (inactive) |  | > 100 µM (inactive) | > 100 µM (inactive) | > 100 µM (inactive) | > 100 µM (inactive) | > 100 | > 100 µM (inactive) |
| CCCCCCCCCCCC(=O)OCC1OC(n2cc(F)c(=O)[nH]c2=O)C(NC(=O)OCc2ccccc2)C(O)C1O (configuration not stated) | 21.2 µM (inactive) | 14.5 µM (inactive) | 28.5 µM (inactive) | 17.6 µM (inactive) |  | 63.7 µM (inactive) | 32.6 µM (inactive) | 17.6 µM (inactive) | 16.7 µM (inactive) | 35.3 µM (inactive) | 19 µM (inactive) | 24 µM (inactive) | 19.1 µM (inactive) | 18.5 µM (inactive) | 57.4 µM (inactive) | 21 µM (inactive) | 18.4 µM (inactive) | 20.3 µM (inactive) | 19.7 | 22 µM (inactive) |

— ChEMBL document CHEMBL1201862, “PubChem BioAssay data set” (2004)
